Data reported in patent US20120083522A1, “MODULATION OF INFLAMMATORY RESPONSES BY FACTOR XI” (Isis Pharmaceuitcals, inc., priority 2009, published 2012).
In the oligonucleotide strings, read from the 5' end, every base follows the letter of its sugar. An asterisk marks phosphorothioate; unmarked linkages are phosphodiester. Other units and linkages are bracketed, terminal groups are in braces. A string of capitals states the bases alone. e = 2'-O-(2-methoxyethyl) (MOE); [5mC] = 5-methylcytosine; d = 2'-deoxy (DNA)

System: human Factor XI mRNA
Test: Antisense inhibition in HepG2 cells by microwalk gapmers, 8,000 nM, electroporation (Example 14)
Type: cell-based
Details: HepG2 cells, 8,000 nM
Procedure: These microwalk gapmers were tested in vitro. Cultured HepG2 cells at a density of 20,000 cells per well were transfected using electroporation with 8,000 nM antisense oligonucleotide. After a treatment period of approximately 24 hours, RNA was isolated from the cells and Factor XI mRNA levels were measured by quantitative real-time PCR. Factor XI mRNA levels were adjusted according to total RNA content, as measured by RIBOGREEN. Results are presented as percent inhibition of Factor XI, relative to untreated control cells.
The chimeric antisense oligonucleotides in Table 51 were designed as 5-10-5 MOE, 5-8-5 and 6-8-6 MOE gapmers. The first two listed gapmers in Table 51 are the original gapmers (ISIS 416850 and ISIS 416858) from which ISIS 445493-445543 were designed via microwalk, and are designated by an asterisk. The 5-10-5 gapmers are 20 nucleotides in length, wherein the central gap segment is comprised of ten 2′-deoxynucleotides and is flanked on both sides (in the 5′ and 3′ directions) by wings comprising five nucleotides each. The 5-8-5 gapmers are 18 nucleotides in length, wherein the central gap segment is comprised of eight 2′-deoxynucleotides and is flanked on both sides (in the 5′ and 3′ directions) by wings comprising five nucleotides each. The 6-8-6 gapmers are 20 nucleotides in length, wherein the central gap segment is comprised of eight 2′-deoxynucleotides and is flanked on both sides (in the 5′ and 3′ directions) by wings comprising six nucleotides each. For each of the motifs (5-10-5, 5-8-5 and 6-8-6), each nucleotide in the 5′ wing segment and each nucleotide in the 3′ wing segment has a 2′-MOE modification. The internucleoside linkages throughout each gapmer are phosphorothioate (P═S) linkages. All cytidine residues throughout each gapmer are 5-methylcytidines. “Human Target start site” indicates the 5′-most nucleotide to which the gapmer is targeted in the human sequence. “Human Target stop site” indicates the 3′-most nucleotide to which the gapmer is targeted in the human sequence. Each gapmer listed in Table 51 is targeted to SEQ ID NO: 1 (GENBANK Accession No. NM_000128.3). Each gapmer is Table 51 is also fully cross-reactive with the rhesus monkey Factor XI gene sequence, designated herein as SEQ ID NO: 274 (exons 1-15 GENBANK Accession No. NW—001118167.1). ‘Rhesus monkey start site’ indicates the 5′-most nucleotide to which the gapmer is targeted in the rhesus monkey sequence. ‘Rhesus monkey stop site’ indicates the 3′-most nucleotide to which the gapmer is targeted to the rhesus monkey sequence.

Row | Substance | Percent inhibition of human Factor XI mRNA levels
1 | 416853 (antisense eT*eT*eG*eG*eT*dG*d[5mC]*dA*d[5mC]*dA*dG*dT*dT*dT*d[5mC]*eT*eG*eG*e[5mC]*eA) [compound 416853] | 84%
2 | 416854 (antisense eA*eT*eT*eG*eG*dT*dG*d[5mC]*dA*d[5mC]*dA*dG*dT*dT*dT*e[5mC]*eT*eG*eG*e[5mC]) [compound 416854] | 86%
3 | 416855 (antisense e[5mC]*eA*eT*eT*eG*dG*dT*dG*d[5mC]*dA*d[5mC]*dA*dG*dT*dT*eT*e[5mC]*eT*eG*eG) [compound 416855] | 85%
4 | 416862 (antisense eA*eG*e[5mC]*eG*eG*dA*d[5mC]*dG*dG*d[5mC]*dA*dT*dT*dG*dG*eT*eG*e[5mC]*eA*e[5mC]) [compound 416862] | 89%
5 | 445507 (antisense eG*eA*e[5mC]*eG*eG*e[5mC]*dA*dT*dT*dG*dG*dT*dG*d[5mC]*eA*e[5mC]*eA*eG*eT*eT) [compound 445507] | 85%
6 | 445508 (antisense eG*eG*eA*e[5mC]*eG*eG*d[5mC]*dA*dT*dT*dG*dG*dT*dG*e[5mC]*eA*e[5mC]*eA*eG*eT) [compound 445508] | 81%
7 | 445509 (antisense e[5mC]*eG*eG*eA*e[5mC]*eG*dG*d[5mC]*dA*dT*dT*dG*dG*dT*eG*e[5mC]*eA*e[5mC]*eA*eG) [compound 445509] | 84%
8 | 445510 (antisense eG*e[5mC]*eG*eG*eA*e[5mC]*dG*dG*d[5mC]*dA*dT*dT*dG*dG*eT*eG*e[5mC]*eA*e[5mC]*eA) [compound 445510] | 88%
9 | 445511 (antisense eA*eG*e[5mC]*eG*eG*eA*d[5mC]*dG*dG*d[5mC]*dA*dT*dT*dG*eG*eT*eG*e[5mC]*eA*e[5mC]) [compound 445511] | 77%
10 | 445512 (antisense e[5mC]*eA*eG*e[5mC]*eG*eG*dA*d[5mC]*dG*dG*d[5mC]*dA*dT*dT*eG*eG*eT*eG*e[5mC]*eA) [compound 445512] | 79%
11 | 445513 (antisense eG*e[5mC]*eA*eG*e[5mC]*eG*dG*dA*d[5mC]*dG*dG*d[5mC]*dA*dT*eT*eG*eG*eT*eG*e[5mC]) [compound 445513] | 85%
12 | 445514 (antisense eG*eG*e[5mC]*eA*eG*e[5mC]*dG*dG*dA*d[5mC]*dG*dG*d[5mC]*dA*eT*eT*eG*eG*eT*eG) [compound 445514] | 81%
13 | 445515 (antisense eT*eG*eG*e[5mC]*eA*eG*d[5mC]*dG*dG*dA*d[5mC]*dG*dG*d[5mC]*eA*eT*eT*eG*eG*eT) [compound 445515] | 75%
14 | 445516 (antisense e[5mC]*eT*eG*eG*e[5mC]*eA*dG*d[5mC]*dG*dG*dA*d[5mC]*dG*dG*e[5mC]*eA*eT*eT*eG*eG) [compound 445516] | 79%
15 | 445517 (antisense eA*e[5mC]*eT*eG*eG*e[5mC]*dA*dG*d[5mC]*dG*dG*dA*d[5mC]*dG*eG*e[5mC]*eA*eT*eT*eG) [compound 445517] | 74%
16 | 445518 (antisense eA*eG*eT*eT*eT*d[5mC]*dT*dG*dG*d[5mC]*dA*dG*dG*e[5mC]*e[5mC]*eT*e[5mC]*eG) [compound 445518] | 75%
17 | 445519 (antisense e[5mC]*eA*eG*eT*eT*dT*d[5mC]*dT*dG*dG*d[5mC]*dA*dG*eG*e[5mC]*e[5mC]*eT*e[5mC]) [compound 445519] | 81%
18 | 445520 (antisense eA*e[5mC]*eA*eG*eT*dT*dT*d[5mC]*dT*dG*dG*d[5mC]*dA*eG*eG*e[5mC]*e[5mC]*eT) [compound 445520] | 82%
19 | 445521 (antisense e[5mC]*eA*e[5mC]*eA*eG*dT*dT*dT*d[5mC]*dT*dG*dG*d[5mC]*eA*eG*eG*e[5mC]*e[5mC]) [compound 445521] | 87%

Row | Substance | Percent inhibition of human Factor XI mRNA levels
20 | 445523 (antisense eT*eG*e[5mC]*eA*e[5mC]*dA*dG*dT*dT*dT*d[5mC]*dT*dG*eG*e[5mC]*eA*eG*eG) [compound 445523] | 73%
21 | 445524 (antisense eG*eT*eG*e[5mC]*eA*d[5mC]*dA*dG*dT*dT*dT*d[5mC]*dT*eG*eG*e[5mC]*eA*eG) [compound 445524] | 75%
22 | 445525 (antisense eG*eG*eT*eG*e[5mC]*dA*d[5mC]*dA*dG*dT*dT*dT*d[5mC]*eT*eG*eG*e[5mC]*eA) [compound 445525] | 85%
23 | 445526 (antisense eT*eG*eG*eT*eG*d[5mC]*dA*d[5mC]*dA*dG*dT*dT*dT*e[5mC]*eT*eG*eG*e[5mC]) [compound 445526] | 81%
24 | 445527 (antisense eT*eT*eG*eG*eT*dG*d[5mC]*dA*d[5mC]*dA*dG*dT*dT*eT*e[5mC]*eT*eG*eG) [compound 445527] | 70%
25 | 445528 (antisense eA*eT*eT*eG*eG*dT*dG*d[5mC]*dA*d[5mC]*dA*dG*dT*eT*eT*e[5mC]*eT*eG) [compound 445528] | 73%
26 | 445529 (antisense e[5mC]*eA*eT*eT*eG*dG*dT*dG*d[5mC]*dA*d[5mC]*dA*dG*eT*eT*eT*e[5mC]*eT) [compound 445529] | 85%
27 | 445530 (antisense eG*e[5mC]*eA*eT*eT*dG*dG*dT*dG*d[5mC]*dA*d[5mC]*dA*eG*eT*eT*eT*e[5mC]) [compound 445530] | 83%
28 | 445533 (antisense eA*e[5mC]*eG*eG*e[5mC]*dA*dT*dT*dG*dG*dT*dG*d[5mC]*eA*e[5mC]*eA*eG*eT) [compound 445533] | 87%
29 | 445534 (antisense eG*eA*e[5mC]*eG*eG*d[5mC]*dA*dT*dT*dG*dG*dT*dG*e[5mC]*eA*e[5mC]*eA*eG) [compound 445534] | 82%
30 | 445535 (antisense eG*eG*eA*e[5mC]*eG*dG*d[5mC]*dA*dT*dT*dG*dG*dT*eG*e[5mC]*eA*e[5mC]*eA) [compound 445535] | 83%
31 | 445536 (antisense e[5mC]*eG*eG*eA*e[5mC]*dG*dG*d[5mC]*dA*dT*dT*dG*dG*eT*eG*e[5mC]*eA*e[5mC]) [compound 445536] | 82%
32 | 445537 (antisense eG*e[5mC]*eG*eG*eA*d[5mC]*dG*dG*d[5mC]*dA*dT*dT*dG*eG*eT*eG*e[5mC]*eA) [compound 445537] | 78%
33 | 445538 (antisense eA*eG*e[5mC]*eG*eG*dA*d[5mC]*dG*dG*d[5mC]*dA*dT*dT*eG*eG*eT*eG*e[5mC]) [compound 445538] | 80%
34 | 445539 (antisense e[5mC]*eA*eG*e[5mC]*eG*dG*dA*d[5mC]*dG*dG*d[5mC]*dA*dT*eT*eG*eG*eT*eG) [compound 445539] | 79%
35 | 445540 (antisense eG*e[5mC]*eA*eG*e[5mC]*dG*dG*dA*d[5mC]*dG*dG*d[5mC]*dA*eT*eT*eG*eG*eT) [compound 445540] | 74%
36 | 445541 (antisense eG*eG*e[5mC]*eA*eG*d[5mC]*dG*dG*dA*d[5mC]*dG*dG*d[5mC]*eA*eT*eT*eG*eG) [compound 445541] | 80%
37 | 445542 (antisense eT*eG*eG*e[5mC]*eA*dG*d[5mC]*dG*dG*dA*d[5mC]*dG*dG*e[5mC]*eA*eT*eT*eG) [compound 445542] | 83%
38 | 445543 (antisense e[5mC]*eT*eG*eG*e[5mC]*dA*dG*d[5mC]*dG*dG*dA*d[5mC]*dG*eG*e[5mC]*eA*eT*eT) [compound 445543] | 74%

System: human Factor XI mRNA
Test: Antisense inhibition in HepG2 cells by microwalk gapmers, 75 nM, lipofectin (Example 3)
Type: cell-based
Details: HepG2 cells, 75 nM, oligonucleotides targeted to nucleobases 1275 to 1318 of SEQ ID NO: 1
How it was run: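 HepG2 cells (10,000 per well) were transfected with 75 nM gapmer using lipofectin and treated for about 24 h. Factor XI mRNA was quantified by real-time PCR, normalized to RiboGreen total RNA and expressed as percent inhibition versus untreated controls.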

Row | Substance | % inhibition of human Factor XI mRNA levels
39 | 416853 (antisense eT*eT*eG*eG*eT*dG*d[5mC]*dA*d[5mC]*dA*dG*dT*dT*dT*d[5mC]*eT*eG*eG*e[5mC]*eA) [compound 416853] | 91%
40 | 416854 (antisense eA*eT*eT*eG*eG*dT*dG*d[5mC]*dA*d[5mC]*dA*dG*dT*dT*dT*e[5mC]*eT*eG*eG*e[5mC]) [compound 416854] | 90%
41 | 416855 (antisense e[5mC]*eA*eT*eT*eG*dG*dT*dG*d[5mC]*dA*d[5mC]*dA*dG*dT*dT*eT*e[5mC]*eT*eG*eG) [compound 416855] | 87%
42 | 416862 (antisense eA*eG*e[5mC]*eG*eG*dA*d[5mC]*dG*dG*d[5mC]*dA*dT*dT*dG*dG*eT*eG*e[5mC]*eA*e[5mC]) [compound 416862] | 90%
